Where two headings read alike, the source gives them in different places.
Key:
[1] = tested on: NCI-H460 R9A tumour cells (H460/(R9A), resistant to carboxylic acid-bearing compounds); test: Sulphorodamine B cytotoxicity test on ST1926-resistant NCI-H460 R9A cells; assay type: cell-based; conditions: for overcoming of resistance on H460/R9A: H460/R9A versus sensitive NCI-H460, result in words; for IC50: Homo sapiens, Table 3, resistant NCI-H460 R9A, SRB, read-out: IC50 ± SD, NCI-H460 R9A
Excerpt: (§1) The cytotoxic effect of some biphenyl and phenylnaphthyl compounds bearing a hydroxamic acid group is reported herein. […] The chemical structures of the tested compounds of the invention and of the corresponding compounds bearing a carboxylic acid group are reported in FIG. 1. To test the effects of the compounds on cell growth, NB4 human promyelocytic leukaemia, NCI-H460 non-small cell carcinoma cells, H460/(R9A) (resistant to carboxylic acid-bearing compounds: ST1898, ST1926, ST1964), HCT-116 human colon carcinoma cells, IGROV-1 and IGROV-1/Pt (sensitive ovarian carcinoma and platinum-resistant ovarian carcinoma cells, respectively) were used. NB4 and NCI-H460 tumour cells were grown in RPMI 1640 containing 10% foetal bovine serum (GIBCO), HCT-116 tumour cells were grown in McCoy's 5A containing 10% foetal bovine serum (GIBCO), IGROV-1 and IGROV-1/Pt were grown in DMEM containing 10% foetal bovine serum (GIBCO),
(§2) Tumour cells were seeded in 96-well tissue culture plates at approximately 10% confluence and were allowed to attach and recover for at least 24 h. Varying concentrations of the drugs were then added to each well to calculate their IC50 value (the concentration which inhibits the 50% of cell survival). The plates were incubated for 24 h at 37° C. At the end of the treatment, for NB4 tumour cells in suspension, the procedure was performed as follows: medium culture was removed by centrifugation of the plates at 1600×g for 10 min and the surnatant was removed. 250 μl PBS were added, then the plates were centrifuged at 1600×g for 10 min, the surnatant was removed. 200 μl/well of medium culture RPMI 1640 containing 10% FCS were added and the plates were incubated at 37° C. for other 48 h. The plates were centrifuged again at 1600×g for 10 min, the medium culture was removed and 200 μl PBS and 50 μl of cold 80% TCA were added. The plates were incubated on ice for at least 1 h. TCA was removed, the plates were washed 3 times for immersion in distilled-water and dried on paper and at 40° C. for 5 min. Then 200 μl of 0.4% sulphorodamine B in 1% acetic acid were added. The plates were incubated at room temperature for other 30 min. Sulphorodamine B was removed, the plates were washed for immersion in 1% acetic acid for 3 times, then they were dried on paper and at 40° C. for 5 min. Then 200 μl Tris 10 mM were added, the plates were kept under stirring for 20 min. The survival cell was determined as optical density by a Multiskan spectrofluorimeter at 540 nm. For the tumour cells in adhesion (NCI-H460 and HCT-116), the procedure was as above mentioned, except that at the end of the treatment, the plates were washed by remotion of the surnatant and addition of PBS 3 times without centrifugation. Also the last day of the assay, the surnatant was removed without centrifugation.
(§3) The amount of cells killed was calculated as the percentage decrease in sulphorodamine B binding compared with control cultures. The IC50 values (the concentration which inhibits the 50% of cell survival) were calculated with the “ALLFIT” program.
The resistant tumour cell line NCI H460 R9A was a clone selected for the resistance to ST1926 (Table 3). To obtain the resistant tumour cell line, the sensitive NCI-H460 tumour cells were treated with 2 μM ST1926 for 24 hours and maintained in drug-free medium for a recovering time of 7 days. Then, survived cells were cultured applying a continuous selective pressure of 2 μM (10×IC50) ST1926. Resistant NCI-H460 cells were subculture for 3-4 times before increasing ST1926 concentration to 4 μM (20×IC50). Survived cells were seeded in 96-well plates to isolate resistant cells clones and maintained in complete medium with 4 μM of ST1926. The tumour cell line was maintained at least for one week, before seeding for SRB cytotoxicity assay, in drug-free medium.
To evaluate the effect of the compound on survival cells, the sulphorodamine B test was used. […]

[2] = tested on: NB4 human promyelocytic leukaemia; test: Sulphorodamine B cytotoxicity test on NB4 cells; assay type: cell-based; conditions: Homo sapiens, NB-4
Excerpt: as §1, §2, §3

[3] = tested on: NCI-H460 non-small cell carcinoma cells; test: Sulphorodamine B cytotoxicity test on NCI-H460 cells; assay type: cell-based; conditions: Homo sapiens, SRB, read-out: IC50 ± SD, NCI-H460
Experimental: The chemical structures of the tested compounds of the invention and of the corresponding compounds bearing a carboxylic acid group are reported in FIG. 1. […] NB4 and NCI-H460 tumour cells were grown in RPMI 1640 containing 10% foetal bovine serum (GIBCO), HCT-116 tumour cells were grown in McCoy's 5A containing 10% foetal bovine serum (GIBCO), IGROV-1 and IGROV-1/Pt were grown in DMEM containing 10% foetal bovine serum (GIBCO),
as §2, §3

[4] = tested on: IGROV-1/Pt (platinum-resistant ovarian carcinoma cells); test: Sulphorodamine B cytotoxicity test on IGROV-1/Pt cells; assay type: cell-based; conditions: Homo sapiens, read-out: IC50 ± SD, IGROV-1/Pt
Excerpt: as §1, §2, §3

[5] = tested on: IGROV-1 (sensitive ovarian carcinoma cells); test: Sulphorodamine B cytotoxicity test on IGROV-1 cells; assay type: cell-based; conditions: Homo sapiens, read-out: IC50 ± SD, IGROV-1
Excerpt: as §1, §2, §3

[6] = tested on: NB4 promyelocytic leukaemia cells; test: Differentiation of NB4 tumour cells by nitroblue tetrazolium (NBT) reduction, with or without ATRA; assay type: cell-based, human; conditions: 3 days, NBT-reducing activity; for AC50: Homo sapiens, 72 h, combined with suboptimal ATRA (5 nM); for Differentiation AC50: compound alone (without ATRA)
Excerpt: Relevant aspects of the differentiation program set in motion by ATRA in APL cells can be reproduced in primary cultures of leukemic blasts and in the derived NB4 cell line, which is a unique model for the study of the pharmacologic activity of ATRA and derivatives. Pharmacological concentrations of ATRA arrest the growth of NB4 blasts and differentiate them into cells that resemble mature neutrophils. This is followed by a slow process of apoptosis. […] In particular, the differentiation of NB4 tumour cells induced by the compounds was determined by nitroblue tetrazolium (NBT) reduction. NB4 promyelocytic leukaemia cells were seeded at a density of 150000 cells/ml in RPMI 1640 medium containing 10% FCS. To measure the cytodifferentiating effect of the molecules, tumour cells were treated with the compounds at different concentrations starting from at least 0.4 μM to 0.01 μM, whereas to measure the enhancing action of the molecules of ATRA activity, NB4 cells were treated with increasing concentrations of the molecules in the presence or absence of ATRA at a suboptimal concentration (5 nM).
Tumour cells were incubated for 3 days at 37° C. without replacing the medium culture. To measure the prodifferentiative effect, 500,000 cells were collected, centrifuged and resuspended in 1 ml of RPMI 1640 medium containing 10% FCS, 1 mg/ml of nitroblue tetrazolium (NBT) and 100 ng of PMA (4-phorbol-12-myristate-13-acetate). The tumour cells resuspended were incubated at 37° C. for 60 min. At the end of the incubation, tumour cells were centrifuged and the pellet was resuspended in 1 ml of PBS containing Triton ×100 at 10%. The samples were sonicated and the absorbance was determined at 540 nm with a spectrophotometer. Differentiation of tumor cells as AC50 (activating concentration) was evaluated as the concentration of the compound giving 50% of the maximal induction of NBT-reducing activity with or without ATRA.

[7] = tested on: HCT-116 human colon carcinoma cells; test: Sulphorodamine B cytotoxicity test on HCT-116 cells; assay type: cell-based; conditions: Homo sapiens, Table 2, SRB, read-out: IC50 ± SD, HCT-116
Excerpt: as §1, §2, §3

[8] = Table 4, NB4 tumour cells, compound alone, read-out: IC50 (μM ± SD)

Row | SMILES | overcoming of resistance on H460/R9A [1] | IC50 [1] [nM] | RI (resistance index) ([1]; IC50 on resistant tumour cell line/IC50 on sensitive tumour cell line (NCI-H460 R9A / NCI-H460)) | IC50 [2, 8] [µM] | IC50 ([3]; NCI-H460, Table 2, NCI-H460) [nM] | IC50 ([3]; NCI-H460, Table 3, sensitive NCI-H460) [nM] | IC50 ([4]; Table 2, SRB) [nM] | IC50 ([5]; Table 2, SRB) [nM] | AC50 [6] [nM] | Differentiation AC50 [6] | IC50 [7] [nM] | IC50 ([2]; Table 1, NB4, 24 h treatment, 48 h recovery, SRB, read-out: IC50 ± SD, NB4) [µM] | IC50 ([4]; Table 1, SRB) [nM] | IC50 ([5]; Table 1, SRB) [nM]
1 | O=C(/C=C/c1ccc(-c2ccc(O)c(C34CC5CC(CC(C5)C3)C4)c2)cc1)NO [ST2992, E-3-[3′-(1-adamantyl)-4′-hydroxy-biphenyl-4-yl]-N-hydroxy-acrylamide] | completely overcame the resistance | 1200 ± 100 | 1.0 | 0.68 ± 0.07 | 1200 ± 30 | 1200 ± 30 | 550 ± 50 | 770 ± 50 | 190 | no differentiation | 3000 ± 200 | – | – | –
2 | O=C(/C=C/c1ccc(-c2ccc(O)cc2)cc1)NO [ST2782, E-3-(4′-hydroxy-biphenyl-4-yl)-N-hydroxy-acrylamide] | the same characteristic are retained | 1800 ± 160 | – | 2.3 ± 0.02 | 6000 ± 900 | – | – | – | 2470 | no differentiation | 6700 ± 700 | 2.3 ± 0.02 | 7700 ± 1600 | 8800 ± 3000
